Experimental data published in patent US20090285820A1, “Methods of Treating Degenerative Disorders With Rac 1B Inhibitor” (priority 2006, published 2009).

What was measured:
Format in all cases: cell-based
[1] = tested on: rac1b mRNA in SH-SY5Y cells; assay: Induction of rac1b splicing by oxidative stress, nested PCR of rac1b; conditions: 24 hours, subtoxic concentrations
Protocol: (§1) To test whether ROS production may affect the rac1/rac1b ratio SH-SY5Y cells were exposed to various ROS-inducing agents at the indicated concentrations for 24 hours and cell viability was determined using a LDH assay (Cytotox96, Promega).
(§2) SH-SY5Y cells were plated in 24 well plates (ATGC, France) at the initial density of 3*10^5 cells/well. After 24 hours, cells were treated with various ROS-inducing agents at the indicated concentrations. After 24 h incubation, a LDH assay was conducted to reveal cell viability and cells were processed for RNA extraction using Trizol.
(§3) To test the effect of ROS producing agents TBH and 6-OHDA on mRNA levels of rac1 and rac1b, SH-SY5Y cells were exposed to various ROS-inducing agents at the indicated concentrations for 24 hours and rac1 and rac1b were either coamplified using primers nm—006908_F1 and nm—006908_R1, or rac1b was specifically amplified in a nested PCR approach that sequentially used primers nm—006908_F1 and nm—006908_R1, then primers nm—006908_F2 and nm—006908_R1. GAPDH was amplified as control.

[2] = tested on: rac1 mRNA in SH-SY5Y cells; assay: Effect of oxidative stress on rac1 levels, PCR of rac1; conditions: 24 hours
Protocol: as §1, §2, §3

[3] = tested on: rac1b mRNA in rat primary cortical cells; assay: Induction of rac1b splicing by Abeta, nested PCR of rac1b mRNA; conditions: rat cortical cells exposed to Abeta for 24 hours; observed at 11.25 and 22.5 μM; two independent cultures
Protocol: Rat primary cortical cell cultures are sensitive to Abeta toxicity, the neurotoxicity of which involves different mechanisms such as calcium homeostasis dysregulation, accumulation of ROS, secondary excitotoxicity and caspase activation (Zhang et al, J Neurochem 1996, 67 (4) 1595-1606). Abeta peptide is dissolved in 100% HFIP (1,1,1,3,3,3-hexafluoro-2-propanol), then dryed out and resuspended in 100% DMSO and rediluted in DMEM/F12 without phenol red. The solution maturates by incubation at 37° C. during 72 h and Aβ oligomers are then added on 7 days cultures for 24 h. After 24 h incubation, cells were processed for RNA extraction using Trizol. A nested PCR approach was used for the amplification rac1b using the following primers: nm—006908_F1: […] (SEQ ID NO 9), nm—006908_R1: TGGCATTGAGTGCGAAGGC (SEQ ID NO 10), nm—006908_F2: AAAGACAAGCCGATTGCCG (SEQ ID NO 11). Rac1 was amplified following the first PCR of the protocol described below using primers nm—006908_F1 and nm—006908_R1. In these conditions, rac1b was not detected on gel due to its low quantity after single PCR amplification and was easily detected using primers nm—006908_F2 and nm—006908_R1 in the nested PCR. […]

Row | Compound | mRNA levels of rac1b [1] | mRNA levels of rac1 [2] | mRNA levels of rac1b [3]
1 | NCCc1cc(O)c(O)cc1O [6-OHDA, 6-hydroxydopamine] | dose dependent accumulation of rac1b | rac1 levels are not altered | –
2 | CC(C)(C)OO [TBH, t-butyl hydroperoxide] | dose dependent accumulation of rac1b | rac1 levels are not altered | –
3 | Abeta: fragment of Abeta42 containing the aminoacids 25 to 35 that reproduces the toxic mechanisms of Aβ42 (GSNKGAIIGLM; Amyloid-beta protein 42; UniProt P05067 696-706, looked up, fragment) | – | – | dose dependent accumulation of rac1b mRNA
